Results: US9962369B2, “Methods and compositions for transdermal delivery” (SPRAYABLE HOLDINGS, INC., priority 2014, dated 2018)

Experiment: Transdermal delivery of melatonin: plasma level of melatonin after applying composition to skin of a subject
Details: human, plasma, topical, 3 mg, Plasma level of melatonin; for concentration at 4 h / concentration at 4 hr: 4 hr after transdermal administration; for concentration at 8 h / concentration at 8 hr: 8 hr after transdermal administration; for concentration at 0 h / concentration at 0 hr: 0 hr after transdermal administration; for concentration at 1 h / concentration at 1 hr: 1 hr after transdermal administration; for concentration at 2 h / concentration at 2 hr: 2 hr after transdermal administration; for concentration at 0 hr / concentration at 1 hr / concentration at 2 hr / concentration at 4 hr / concentration at 8 hr: 0.30 mL applied to skin
[1] = Table 20 control, A− N/A, helper esters 0 mM, 2.0 mL applied
[2] = Tryptophan butyl ester hydrochloride 235.90 mM, 0.3 mL applied to skin
[3] = Tryptophan ethyl ester hydrochloride 260.47 mM, 0.3 mL applied to skin
[4] = Tryptophan isopropyl ester hydrochloride 247.52 mM, 0.3 mL applied to skin
[5] = Tyrosine isopropyl ester 269.50 mM
[6] = Tyrosine pentyl ester 243.25 mM
[7] = salt of tryptophan isopropyl ester, A− = AcO^−, 228.48 mM, 0.30 mL applied
[8] = salt of tryptophan isopropyl ester, A− = Benzoate ion, 189.98 mM, 0.30 mL applied
[9] = salt of tryptophan isopropyl ester, A− = Br^−, 220.92 mM, 0.30 mL applied
[10] = salt of tryptophan isopropyl ester, A− = Citrate ion, 159.67 mM, 0.30 mL applied

COc1ccc2[nH]cc(CCNC(C)=O)c2c1 [Melatonin]
2.5 ng/mL: concentration at 8 h [4] | concentration at 2 hr (Tyrosine propyl ester 269.5 mM)
2.4 ng/mL: concentration at 1 h [9] | concentration at 4 h [10]
2.7 ng/mL: concentration at 4 h [4] | concentration at 4 hr [5]
1.9 ng/mL: concentration at 2 h [2] | concentration at 4 h [3] | concentration at 1 h [7]
2.9 ng/mL: concentration at 2 hr [5] | concentration at 2 h [9]
2.8 ng/mL: concentration at 2 h [4] | concentration at 8 hr [5]
2.2 ng/mL: concentration at 2 h [3] | concentration at 4 hr [6] | concentration at 2 h [7]
0 ng/mL: concentration at 0 h [2] | concentration at 0 h [3] | concentration at 0 hr [5] | concentration at 0 hr [6] | concentration at 0 hr (Tyrosine propyl ester 269.5 mM) | concentration at 0 h [7] | concentration at 0 h [8] | concentration at 0 h [9] | concentration at 0 h [10] | concentration at 0 h (salt of tryptophan isopropyl ester, A− = Cl^−, 247.52 mM, 0.30 mL applied)
0.1 ng/mL: concentration at 4 h [1] | concentration at 8 h [1]
1.7 ng/mL: concentration at 4 h [2] | concentration at 8 h [2] | concentration at 8 h [8]
1.8 ng/mL: concentration at 1 h [2] | concentration at 8 h [3] | concentration at 1 hr [6] | concentration at 1 h [8] | concentration at 2 h [8]
2.1 ng/mL: concentration at 1 hr [5] | concentration at 2 hr [6] | concentration at 8 hr [6] | concentration at 4 h [7] | concentration at 1 h [10] | concentration at 8 h [10]
2.3 ng/mL: concentration at 2 h [10]
2.6 ng/mL: concentration at 4 hr (Tyrosine propyl ester 269.5 mM) | concentration at 8 hr (Tyrosine propyl ester 269.5 mM) | concentration at 4 h [9] | concentration at 8 h [9]
2 ng/mL: concentration at 1 h [3] | concentration at 1 hr (Tyrosine propyl ester 269.5 mM) | concentration at 8 h [7] | concentration at 4 h [8]
